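48-hour exposure; five concentrations; linearly interpolated endpoints. GI50 = concentration required for 50% inhibition of growth. TGI: concentration producing complete growth inhibition.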
Key:
Experiment in all cases: NCI tumour cell line growth inhibition, 48 h
[1] = system: HCT-15 colon
[2] = system: HL-60(TB) leukemia
[3] = system: NCI-H226 lung
[4] = system: PC-3 prostate
[5] = system: SK-OV-3 ovarian
[6] = system: T-47D breast
[7] = system: EKVX NSCLC
[8] = system: HT29 colon
[9] = system: UACC-62 melanoma
[10] = system: UO-31 renal

| Structure (SMILES) | GI50 [1] | TGI [1] | GI50 [2] | TGI [2] | GI50 [3] | TGI [3] | GI50 [4] | TGI [4] | GI50 [5] | TGI [5] | GI50 [6] | TGI [6] | TGI [7] | TGI [8] | TGI [9] | TGI [10] |
| --- | --- | --- | --- | --- | --- | --- | --- | --- | --- | --- | --- | --- | --- | --- | --- | --- |
| CCN1CCN(Cc2ccc(NC(=O)Nc3ccc(-n4ccc5c(NC(=O)c6ccccc6)nccc54)cc3)cc2C(F)(F)F)CC1 | 0.227 µM | 1.81 µM | 1.71 µM | 7.91 µM | 1.54 µM | 4.84 µM | 1.16 µM | 4.68 µM | 1.8 µM | 10.5 µM | 3.54 µM | 15.9 µM | – | – | – | – |
| C=C1CC(COc2ccc3c(C)c(C)c(=O)oc3c2C)(c2ccccc2)OC1=O (stereo unspecified) | – | 3.84 µM | – | 5.54 µM | – | 6.73 µM | – | 3.84 µM | – | 13.4 µM | – | 4.96 µM | 20.8 µM | 3.27 µM | 3.42 µM | 7 µM |
| N#Cc1nc(C2CCC(=O)O2)oc1N (stereo unspecified) | – | > 100 µM | – | > 100 µM | – | > 100 µM | – | > 100 µM | – | > 100 µM | – | – | > 100 µM | > 100 µM | > 100 µM | > 100 µM |
| O=C(OC12CC3CC(CC(C3)C1)C2)c1ccc(NCc2cc(O)ccc2O)cc1 | – | 2.29 µM | – | 0.627 µM | – | 6.2 µM | – | 3.37 µM | – | 13.2 µM | – | 1.04 µM | 3.37 µM | 9.73 µM | 3.28 µM | 2.06 µM |
| O=C(O)C1=NN(c2ccc(S(=O)(=O)O)cc2)C2(C1)C(Cl)C(=O)N2c1nc2ccccc2s1 (stereo unspecified) | – | 42.4 µM | – | 34.4 µM | – | 41.4 µM | – | 31.2 µM | – | 30.6 µM | – | 44.8 µM | 34.3 µM | 34.9 µM | 29.5 µM | 22.9 µM |
| Clc1ccc(OCc2nnc(COc3ccc(OCc4nnc(COc5ccc(Cl)cc5Cl)o4)c(Cl)c3)o2)c(Cl)c1 | – | > 100 µM | – | 57.3 µM | – | > 100 µM | – | > 100 µM | – | – | – | > 100 µM | 45.2 µM | 87.5 µM | > 100 µM | 36.7 µM |
| O=C(Sc1c(-c2ccccc2)c(=O)n(-c2ccccc2)c(=S)n1-c1ccccc1)c1ccco1 | – | > 100 µM | – | 59.2 µM | – | > 100 µM | – | > 100 µM | – | > 100 µM | – | > 100 µM | > 100 µM | > 100 µM | > 100 µM | > 100 µM |
| C[N+]1(CCN=C=NC2CCCCC2)CCOCC1 | – | > 100 µM | – | > 100 µM | – | > 100 µM | – | > 100 µM | – | > 100 µM | – | > 100 µM | > 100 µM | > 100 µM | > 100 µM | > 100 µM |
| CC(=O)N(C)c1ccc(Nc2ccnc3ccc4nn(C)nc4c23)cc1 | – | 64.5 µM | – | 38.8 µM | – | 34.3 µM | – | > 100 µM | – | 47.6 µM | – | 76.1 µM | 76.1 µM | > 100 µM | 37 µM | 29.2 µM |
| COc1ccc(OC/C(N=Cc2ccncc2)=N/NC(=O)c2ccncc2)cc1 | – | > 100 µM | – | > 100 µM | – | > 100 µM | – | > 100 µM | – | > 100 µM | – | > 100 µM | > 100 µM | > 100 µM | > 100 µM | – |
| O=P1(C(O)/C=C/c2ccccc2)N(Cc2ccccc2)[C@@H]2CCCC[C@H]2N1Cc1ccccc1 (stereo partly specified) | – | 43.8 µM | – | 5.88 µM | – | 17.2 µM | – | 11.3 µM | – | > 100 µM | – | 35.7 µM | 35.9 µM | 21.5 µM | 21.2 µM | 17.7 µM |
| Cc1ccc2c(c1C)CC1(Cc3c(C)ccc(C)c3C1=O)C2=O (stereo unspecified) | – | > 100 µM | – | > 100 µM | – | > 100 µM | – | – | – | > 100 µM | – | > 100 µM | > 100 µM | > 100 µM | > 100 µM | > 100 µM |
| CCCCN1C(=O)CC2[C@@H]3CCc4cc(OC)ccc4C3CC[C@]2(C)C1=O (stereo partly specified) | – | > 10 µM | – | > 10 µM | – | > 10 µM | – | > 10 µM | – | > 10 µM | – | > 10 µM | > 10 µM | > 10 µM | > 10 µM | > 10 µM |
| Nc1nncc2[nH]cnc12 | – | > 100 µM | – | 42.9 µM | – | > 100 µM | – | > 100 µM | – | > 100 µM | – | > 100 µM | > 100 µM | > 100 µM | > 100 µM | > 100 µM |
| Cc1cn(CCCCCOC(=O)NC(CCCNC(N)=O)C(=O)O)c(=O)[nH]c1=O (stereo unspecified) | – | > 100 µM | – | > 100 µM | – | > 100 µM | – | > 100 µM | – | > 100 µM | – | > 100 µM | > 100 µM | > 100 µM | > 100 µM | > 100 µM |
| N#Cc1nc(CCCN2C(=O)c3ccccc3C2=O)oc1N | – | > 100 µM | – | – | – | > 100 µM | – | > 100 µM | – | > 100 µM | – | > 100 µM | > 100 µM | > 100 µM | – | > 100 µM |
| Cn1c2c(c3ccccc31)CCN1C(=O)C34CCCC3CC21S4 (stereo unspecified) | – | > 100 µM | – | > 100 µM | – | > 100 µM | – | > 100 µM | – | > 100 µM | – | > 100 µM | > 100 µM | > 100 µM | > 100 µM | > 100 µM |
| NC(N)=NS(=O)(=O)c1ccc(NC(=O)c2cccc3c(NNc4ccc(S(N)(=O)=O)cc4)c4ccccc4nc23)cc1 | – | > 100 µM | – | 66.2 µM | – | > 100 µM | – | > 100 µM | – | > 100 µM | – | 79.1 µM | > 100 µM | > 100 µM | > 100 µM | > 100 µM |
| O=P(OCc1ccccc1)(OCc1ccccc1)C(O)/C=C/c1ccccc1 (stereo unspecified) | – | > 100 µM | – | 44.3 µM | – | 78.3 µM | – | > 100 µM | – | > 100 µM | – | 88.3 µM | 95.6 µM | 45.4 µM | 31.4 µM | 80.3 µM |
| C[n+]1c(-c2ccc(NC(=O)c3ccc(C(=O)Nc4ccc(-c5cn6ccccc6[n+]5C)cc4)cc3)cc2)cn2ccccc21 | – | > 100 µM | – | > 100 µM | – | > 100 µM | – | > 100 µM | – | > 100 µM | – | > 100 µM | > 100 µM | > 100 µM | > 100 µM | > 100 µM |
| NCCCCNCCCNC(=O)CNC(=O)CC(O)C(N)CCCC(NC(=O)C(CN)NC(=O)C(O)CNC(=O)CC(N)c1ccc(O)cc1)C(=O)O (stereo unspecified) | – | > 10 µM | – | > 10 µM | – | > 10 µM | – | > 10 µM | – | > 10 µM | – | > 10 µM | > 10 µM | > 10 µM | > 10 µM | > 10 µM |

— PubChem BioAssay (NCI)
